We go through three compounds from ChEMBL document CHEMBL1201862, “PubChem BioAssay data set” (2004).

For experiment [1], the system named is BJ. Kind of experiment: cytotoxicity toward BJ-TERT-LT-ST fibroblasts, dose response, cell-based, RAS-independent, luminescence (AID 1935).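 Further: BJ fibroblasts immortalized with TERT plus LT and ST oncogenes.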 Conditions: Homo sapiens. It counts as functional.
Another experiment relates to Streptococcus. In words: Group A Streptococcus viability loss, dose response, counter-screen for streptokinase expression inhibitor project, luminescence, BacTiterGlo (AID 1915).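 Further: potency for reduction of bacterial viability or growth.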 The format is functional, organism-based.
The subject of experiment [2] is Vero. In words: cells. It counts as functional. The following applies: Chlorocebus sabaeus.
Another experiment concerns the target Cytochrome P450 2C19 (Homo sapiens, UniProt P33261). In words: Cytochrome panel assay with activity outcomes. Panel member name: p450-cyp2c19 Compounds with AC50 equal or less than 10 uM are considered active. It counts as functional. The following applies: read-out: AC50.
Experiment [3] in a line: Shn3 3'UTR reporter inhibitors, dose response, cell-based, Clone20 osteoblasts, firefly luciferase, cherry-picked (AID 624132).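 Further: firefly luciferase luminescence from reporter carrying the Shn3 3'UTR in osteoblasts.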 The format is functional.
Experiment [4] deals with BJ. Kind of experiment: cytotoxicity toward BJ-TERT fibroblasts, dose response, cell-based, RAS-independent, luminescence (AID 1933). It counts as functional. Conditions: Homo sapiens.
A further experiment concerns the target T1, Cytochrome P450 1A2 (Homo sapiens, UniProt P05177).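 Further: PubChem cytochrome P450 panel assay, CYP1A2 panel member.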
T1 sequence (P05177 whole entry): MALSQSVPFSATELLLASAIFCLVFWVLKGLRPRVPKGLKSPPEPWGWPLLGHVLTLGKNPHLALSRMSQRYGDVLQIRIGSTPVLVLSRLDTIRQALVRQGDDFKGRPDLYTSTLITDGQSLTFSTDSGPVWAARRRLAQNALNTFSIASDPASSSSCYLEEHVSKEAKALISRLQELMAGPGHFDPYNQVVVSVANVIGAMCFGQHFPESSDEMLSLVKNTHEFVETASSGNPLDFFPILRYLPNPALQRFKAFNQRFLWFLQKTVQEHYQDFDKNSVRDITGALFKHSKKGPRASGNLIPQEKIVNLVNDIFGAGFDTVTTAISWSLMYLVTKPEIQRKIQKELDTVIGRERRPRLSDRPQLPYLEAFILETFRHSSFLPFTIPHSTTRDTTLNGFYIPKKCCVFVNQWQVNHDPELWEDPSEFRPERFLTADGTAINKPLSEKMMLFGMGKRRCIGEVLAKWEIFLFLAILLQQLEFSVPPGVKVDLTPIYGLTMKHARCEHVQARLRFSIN

Experiment [5] in a line: control 3'UTR Renilla luciferase suppression, dose response, counter-screen for Shn3 inhibitor project, cell-based, Clone20-Shn3RL, cherry-picked (AID 624133). It counts as functional. On the technique in general: The purpose of a counterscreen is to sort out artefacts and off-target activity.
Experiment [6] relates to Streptococcus sp. 'group A'. In words: growth inhibition of control SK(-) GAS strain, dose response, counter-screen for streptokinase expression inhibitor project, luminescence, kanamycin, BacTiterGlo, confirmation (AID 1900). It counts as functional, organism-based.
Another experiment relates to INS1. Kind of experiment: beta cell apoptosis inhibitors, cytokine rescue, dose response, luminescence, retest (AID 449756).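 Further: cell death triggered by IL-1 beta plus TNF-alpha plus IFN-gamma mixture; protective hits raise ATP signal compared with cytokine alone wells.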 The format is functional, cell-based. The following applies: Rattus norvegicus.
Experiment [7] is described as follows: cells. The format is functional, cell-based.
Experiment [8] relates to Vero. In words: cells. It counts as functional, cell-based. The following applies: Chlorocebus sabaeus.
Experiment [9] in a line: cytotoxicity toward DRD oncogenic fibroblasts, dose response, cell-based, non-viral oncogenic, luminescence (AID 1934). The format is functional. Conditions: Homo sapiens.
The nature of experiment [10]: NIH-3T3 fibroblast cytotoxicity, dose response, cytotoxicity control, cell-based, fluorescence, Alamar Blue, secondary assay (AID 2327).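 Further: NIH-3T3 mouse fibroblasts cultured with fluconazole at 8 µg/mL.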 It counts as functional. (Resazurin is reduced to fluorescent resorufin, in cell work by metabolically active cells.)
Experiment [11] can be described thus: cells. It counts as functional, cell-based. This is another data set of the same source.
Experiment [12] relates to BJ. In words: cells. It counts as functional, cell-based. The following applies: Homo sapiens.
Experiment [13] is described as follows: C. albicans growth with fluconazole, confirmation, fluorescence, retest (AID 2467). It counts as functional, cell-based.
For experiment [14], the target named is Heat shock protein HSP 90-alpha (Homo sapiens, UniProt P07900). It counts as functional, organism-based.
A further experiment concerns the target Cytochrome P450 2D6 (Homo sapiens, UniProt P10635).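 Further: CYP2D6 member of a cytochrome P450 panel assay.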
Experiment [15] concerns the target ATP-dependent molecular chaperone HSP82 (Candida albicans (strain WO-1) (Yeast), UniProt C4YTQ8). Kind of experiment: loss of DOC-induced GRE-beta-galactosidase reporter signal, dose response, Hsp90 inhibitor project, S. cerevisiae, luminescence (AID 2400).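 Further: beta-galactosidase luminescence from glucocorticoid response element reporter as proxy for Hsp90 function; inhibitor potency where signal loss means Hsp90 inhibition.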 It counts as functional, cell-based.
Experiment [16] has as its target Serine/threonine-protein phosphatase (Candida dubliniensis (strain CD36 / CBS 7987 / NCPF 3949 / NRRLY-17841) (Yeast), UniProt B9W6M3). In words: calcineurin pathway inhibitors in yeast reporter, dose response, S. cerevisiae, CDRE-lacZ, luminescence, secondary (AID 2388).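 Further: yeast reporter cells carrying a calcineurin-responsive lacZ construct stimulated with calcium chloride; luminescent beta-galactosidase reporter signal in whole cells rather than isolated phosphatase activity; potency for inhibition where a drop in reporter signal means calcineurin blockade.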 The format is functional, cell-based.
Experiment [17] addresses T2, Short transient receptor potential channel 4 (Mus musculus, UniProt Q9QUQ5).
T2 sequence (Q9QUQ5 whole entry): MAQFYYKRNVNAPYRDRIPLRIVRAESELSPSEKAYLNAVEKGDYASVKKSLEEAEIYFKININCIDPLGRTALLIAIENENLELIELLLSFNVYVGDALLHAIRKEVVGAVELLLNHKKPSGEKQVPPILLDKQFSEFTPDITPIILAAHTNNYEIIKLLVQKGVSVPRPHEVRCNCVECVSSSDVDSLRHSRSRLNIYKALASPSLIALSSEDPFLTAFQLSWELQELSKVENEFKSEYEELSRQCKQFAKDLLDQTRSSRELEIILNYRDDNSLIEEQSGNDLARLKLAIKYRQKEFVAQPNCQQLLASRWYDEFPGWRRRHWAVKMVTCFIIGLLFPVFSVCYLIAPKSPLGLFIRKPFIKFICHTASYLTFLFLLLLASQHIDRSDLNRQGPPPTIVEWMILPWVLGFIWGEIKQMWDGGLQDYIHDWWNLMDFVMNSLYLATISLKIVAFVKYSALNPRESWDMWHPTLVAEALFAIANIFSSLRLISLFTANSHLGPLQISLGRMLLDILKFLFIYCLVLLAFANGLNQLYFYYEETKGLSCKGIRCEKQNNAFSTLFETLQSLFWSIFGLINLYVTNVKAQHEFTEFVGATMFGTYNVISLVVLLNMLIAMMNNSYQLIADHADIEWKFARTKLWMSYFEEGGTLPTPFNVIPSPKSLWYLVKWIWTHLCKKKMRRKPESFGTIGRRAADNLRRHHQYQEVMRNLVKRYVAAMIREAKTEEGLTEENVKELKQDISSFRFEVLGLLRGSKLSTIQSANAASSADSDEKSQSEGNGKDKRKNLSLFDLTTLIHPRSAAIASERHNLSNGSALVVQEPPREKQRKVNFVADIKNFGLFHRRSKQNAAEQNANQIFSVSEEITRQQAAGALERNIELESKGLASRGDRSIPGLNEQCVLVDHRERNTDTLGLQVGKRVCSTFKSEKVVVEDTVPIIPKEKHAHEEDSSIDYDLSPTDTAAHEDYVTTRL
Kind of experiment: mouse TRPC4 channel inhibitors, dose response, cell-based, HEK293 TRPC4/mu-opioid, Fluo-4 calcium (AID 434942).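 Further: potency of inhibitors blocking the TRPC4 calcium response.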 The format is functional.

Experiment [18] has as its target T2, Short transient receptor potential channel 4. In words: TRPC4 inhibitor concentration-response, dose response, cell-based, HEK293 TRPC4/mu-opioid, DAMGO stimulus, Fluo-4 (AID 492994). It counts as functional.
For experiment [19] the target is unchanged. Kind of experiment: SAR Analysis for the identification of selective inhibitors of the transient receptor potential cation channel C4 (TRPC4): TRPC4 Serotonin Receptor CRC MPD assay. [Related pubchem assays (depositor defined):AID2247, AID2256]. It counts as functional.
Experiment [20] has the same target. In words: SAR Analysis for the identification of selective inhibits of the transient receptor potential cation channel C4 (TRPC4): Automated Electrophysiology. [Related pubchem assays (depositor defined):AID2256]. It counts as functional.
Experiment [21] shares this target. In words: TRPC4 inhibition under acetylcholine activation, SAR follow-up, cell-based, acetylcholine stimulus, HEK293 TRPC4, Fluo-4 (AID 492996). It counts as functional.
Experiment [22] relates to A-375. Kind of experiment: MITF: Counter assay: A375 proliferation Measured in Cell-Based System Using Plate Reader - 2084-03_Inhibitor_Dose_DryPowder_Activity. [Related pubchem assays (depositor defined):AID488944]. It counts as functional. The following applies: Homo sapiens.
Experiment [23] deals with A-375. In words: A375 melanoma cell viability reduction, dose response, counter-screen for MITF modulator project, cherry-pick samples, set 2 (AID 540335). The format is functional, cell-based. The following applies: Homo sapiens.
A short description of experiment [24]: growth suppression of beta-catenin-knockout colon cells, dose response, cell-based, HCT116, human colon tumor (AID 1045).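 Further: HCT116 colon tumor cells with beta catenin knocked out; cells exposed to compound for 60 hours.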 The format is functional.
Experiment [25] can be described thus: growth suppression of PTEN-null colon cells, dose response, cell-based, HCT116 PTEN knockout (AID 1047).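 Further: HCT116 colon tumor cells with PTEN knocked out; cells exposed to compound for 60 hours before readout; potency for loss of cell viability measured by luminescence.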 It counts as functional.

Active and inactive are the calls of the source.

Serine/threonine-protein phosphatase, sequence (B9W6M3 whole entry): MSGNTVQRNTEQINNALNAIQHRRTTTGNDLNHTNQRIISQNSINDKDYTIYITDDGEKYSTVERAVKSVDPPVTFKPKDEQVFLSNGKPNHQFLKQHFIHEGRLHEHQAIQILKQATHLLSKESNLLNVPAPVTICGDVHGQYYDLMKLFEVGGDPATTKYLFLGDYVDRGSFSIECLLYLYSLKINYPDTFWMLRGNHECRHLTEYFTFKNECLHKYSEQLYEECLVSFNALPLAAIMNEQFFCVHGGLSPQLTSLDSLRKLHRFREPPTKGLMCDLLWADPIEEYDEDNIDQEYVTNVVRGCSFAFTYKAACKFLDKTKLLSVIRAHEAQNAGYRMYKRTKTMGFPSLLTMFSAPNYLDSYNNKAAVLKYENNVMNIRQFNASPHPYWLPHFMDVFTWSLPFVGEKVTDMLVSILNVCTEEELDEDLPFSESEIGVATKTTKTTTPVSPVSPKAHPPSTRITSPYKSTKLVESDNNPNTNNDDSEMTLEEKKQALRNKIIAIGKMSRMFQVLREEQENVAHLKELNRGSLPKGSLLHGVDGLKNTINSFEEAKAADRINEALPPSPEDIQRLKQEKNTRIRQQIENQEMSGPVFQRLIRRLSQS
Cytochrome P450 2C19, sequence (P33261 whole entry): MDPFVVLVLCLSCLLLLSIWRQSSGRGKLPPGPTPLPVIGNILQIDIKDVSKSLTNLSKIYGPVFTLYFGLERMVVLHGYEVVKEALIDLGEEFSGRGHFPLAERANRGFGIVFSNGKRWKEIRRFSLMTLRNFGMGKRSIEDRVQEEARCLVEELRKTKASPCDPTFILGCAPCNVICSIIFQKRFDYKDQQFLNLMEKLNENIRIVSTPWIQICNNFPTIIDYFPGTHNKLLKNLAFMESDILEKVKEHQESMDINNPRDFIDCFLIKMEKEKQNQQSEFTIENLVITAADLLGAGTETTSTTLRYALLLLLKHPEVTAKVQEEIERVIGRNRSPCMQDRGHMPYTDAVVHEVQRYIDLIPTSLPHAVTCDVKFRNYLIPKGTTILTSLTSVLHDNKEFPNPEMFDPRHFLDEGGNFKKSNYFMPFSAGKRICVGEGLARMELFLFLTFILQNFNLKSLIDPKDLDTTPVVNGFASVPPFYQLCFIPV
ATP-dependent molecular chaperone HSP82, sequence (C4YTQ8 whole entry): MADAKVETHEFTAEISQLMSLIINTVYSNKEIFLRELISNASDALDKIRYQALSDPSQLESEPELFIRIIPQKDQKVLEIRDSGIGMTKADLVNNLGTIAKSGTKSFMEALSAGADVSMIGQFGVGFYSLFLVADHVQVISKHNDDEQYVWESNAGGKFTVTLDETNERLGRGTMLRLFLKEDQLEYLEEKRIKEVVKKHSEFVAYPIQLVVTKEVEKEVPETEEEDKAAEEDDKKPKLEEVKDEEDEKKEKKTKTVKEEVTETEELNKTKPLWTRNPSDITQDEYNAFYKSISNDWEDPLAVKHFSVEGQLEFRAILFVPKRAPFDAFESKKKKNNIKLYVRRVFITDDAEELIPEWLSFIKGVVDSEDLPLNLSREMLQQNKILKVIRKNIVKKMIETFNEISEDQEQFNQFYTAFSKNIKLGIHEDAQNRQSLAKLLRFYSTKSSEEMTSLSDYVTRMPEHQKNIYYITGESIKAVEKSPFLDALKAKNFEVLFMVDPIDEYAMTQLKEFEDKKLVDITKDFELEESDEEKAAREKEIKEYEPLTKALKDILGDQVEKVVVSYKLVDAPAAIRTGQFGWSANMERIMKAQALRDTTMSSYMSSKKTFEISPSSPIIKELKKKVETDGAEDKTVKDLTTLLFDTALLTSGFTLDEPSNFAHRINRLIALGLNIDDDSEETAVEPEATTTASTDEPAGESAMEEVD
Cytochrome P450 2D6, sequence (P10635 whole entry): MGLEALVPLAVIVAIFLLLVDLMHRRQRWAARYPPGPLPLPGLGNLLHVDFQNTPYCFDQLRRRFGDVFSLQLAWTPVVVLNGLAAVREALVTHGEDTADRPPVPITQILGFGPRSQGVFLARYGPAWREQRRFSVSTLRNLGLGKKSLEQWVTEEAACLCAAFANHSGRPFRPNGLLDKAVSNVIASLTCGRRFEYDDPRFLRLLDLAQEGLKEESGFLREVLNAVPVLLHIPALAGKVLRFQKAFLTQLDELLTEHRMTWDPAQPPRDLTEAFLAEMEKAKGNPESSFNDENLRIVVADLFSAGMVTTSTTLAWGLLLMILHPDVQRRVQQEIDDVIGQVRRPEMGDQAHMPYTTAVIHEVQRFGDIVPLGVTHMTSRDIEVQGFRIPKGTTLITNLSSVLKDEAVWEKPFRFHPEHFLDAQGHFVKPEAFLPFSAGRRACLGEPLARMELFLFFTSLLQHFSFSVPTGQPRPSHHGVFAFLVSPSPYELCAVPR

On to `Oc1c(CN2CCN(c3ccccc3)CC2)cc(Br)c2cccnc12`, for which the EC50 is 8.16 µM (inconclusive) in the experiment with BJ [1]; 2.95 µM (active) in the experiment with Streptococcus; 5.2 µM (active) in the experiment with BJ [4]; 1.47 µM (active) in experiment [6]; > 350 µM (not active) in the experiment “cells [7]”; 14 µM (active) in experiment [9]. Besides, the EC50 in [10] is > 160 µM (inconclusive); in the experiment “cells [11]”, 62.6 µM (active); in the experiment with BJ [12], 12.7 µM (inconclusive); in experiment [13], 656 nM (active); in [15] it was 21.3 µM (active); in experiment [16], > 180 µM (inactive). The CC50 in the experiment with Vero [2] is 3.51 µM (active). For the same compound, the AC50 on Cytochrome P450 2C19 is 3.98 µM (inconclusive); in experiment [3], 1.92 µM (active); at Cytochrome P450 1A2, 1.26 µM (inconclusive); in experiment [5], 1.84 µM (active); in the experiment with INS1 it was 2.42 µM (active); in [14], 4.59 µM (active). The AC50 at Cytochrome P450 2D6 was 3.98 µM (inconclusive). Further, the IC50 with Vero [8] was > 12.5 µM (active).

For the compound `Cc1cc(N2CCCCC2)nc2ccccc12`, in [17], the EC50 was 2.7 nM (active). The IC50 in [18] was 820 nM (active); in experiment [19], 2.24 µM (active); in experiment [20], 2.63 µM (active); in experiment [21], 1.23 µM (active).

On to `CN(C)CCNC(=O)/C(=C/c1ccc(-c2ccc(Cl)cc2)o1)NC(=O)c1ccccc1`, for which the AC50 in the experiment with A-375 [22] and with A-375 [23] was > 11 µM (active) in each case. Also, the EC50 in [24] was 9.77 µM (active); in [25], 10.9 µM (active).

As a reminder, the EC50 is the concentration that produces a half-maximal response. In general, CC50 refers to the concentration that lowers cell viability or growth by half. A word on the AC50: it is the concentration at which the activity in the assay is half-maximal. As usually defined, the IC50 is the concentration that gives 50% inhibition.
